Source: patent US11981677B2, “Further substituted triazolo quinoxaline derivatives” (Grünenthal GmbH, priority 2018, dated 2024)

Biological target: T1, Glucocorticoid Receptor (Homo sapiens, UniProt P04150)
T1 construct: expressed in transfected cells
T1 sequence (P04150 524-758 limits assumed): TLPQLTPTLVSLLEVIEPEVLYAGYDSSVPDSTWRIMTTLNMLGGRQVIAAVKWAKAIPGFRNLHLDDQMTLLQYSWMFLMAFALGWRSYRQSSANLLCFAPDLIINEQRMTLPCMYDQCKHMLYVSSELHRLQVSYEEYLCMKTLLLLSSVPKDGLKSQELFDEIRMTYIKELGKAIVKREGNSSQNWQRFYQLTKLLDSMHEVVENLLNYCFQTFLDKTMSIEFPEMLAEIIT
Experiment: Agonistic mode of action on the glucocorticoid receptor (CHO-Gal4/GR luciferase reporter cell line)
Type: cell-based
Conditions: CHO-Gal4/GR luciferase reporter cells; observed in the agonistic assay or the antagonistic assay (mode not given); read-out: IC50 or EC50 range
Excerpt: Potential selective glucocorticoid receptor modulators of this intervention can be tested for modulation of the activity of the glucocorticoid receptor using cell-based assays. These assays involve a Chinese hamster ovary (CHO) cell line which contains fragments of the glucocorticoid receptor as well as fusion proteins. The glucocorticoid receptor fragments used are capable of binding the ligand (e.g. beclomethasone) to identify molecules that compete for binding with glucocorticoid receptor ligands. In more detail, the glucocorticoid receptor ligand binding domain is fused to the DNA binding domain (DBD) of the transcriptionfactor GAL4 (GAL4 DBD-GR) and is stably integrated into a CHO cell line containing a GAL4-UAS-Luciferase reporter construct. […] After cell lysis the luminescence that is produced by luciferase after addition of the substrate is detected and EC50 or IC50 values can be calculated. Engagement of molecules which induce gene expression via glucocortocoid receptor binding to the DNA leads to expression of the luciferase gene under the control of the fusion protein GAL4 DBD-GR and therefore to a dose-dependent increase of the luminescence signal. Binding of molecules which repress beclomethasone-induced gene expression of the luciferase gene under the control of the fusion protein GAL4 DBD-GR leads to a dose-dependent reduction of the luminescence signal.
The reporter cell line CHO-Gal4/GR consisted of a chinese hamster ovary (CHO) cell line (Leibniz Institute DSMZ—German Collection of Microorganisms and Cell Cultures GmbH: ACC-110) containing a firefly luciferase gene under the control of the GR ligand binding domain fused to the DNA binding domain (DBD) of GAL4 (GAL4 DBD-GR) stably integrated into CHO cells. This cell line was established by stable transfection of CHO cells with a GAL4-UAS-Luciferase reporter construct. In a subsequent step the ligand binding domain of the GR cloned into pIRES2-EGFP-GAL4 containing the DNA binding domain of GAL4 from pFA-AT2 was transfected. This fusion construct activated firefly luciferase expression under the control of a multimerized GAL4 upstream activation sequence (UAS). The signal of the emitted luminescence was recorded by the FLIPR^TETRA. This allowed for specific detection of ligand-induced activation of the GR and therefore for the identification of compounds with agonistic properties. The GAL4/UAS reporter was premixed with a vector that constitutively expressed Renilla luciferase, which served as an internal positive control for transfection efficiency.
The complete culture medium for the assay was: • DMEM F-12 (1:1) MIXTURE (LONZA cat. No: BE04-687F/U1) 500 mL • 5 mL of 100 mM Sodium Pyruvate (LONZA cat. No: BE12-115E) • 25 mL of 7.5% Sodium Bicarbonate (LONZA cat. No BE17-613E) • 6.5 mL of 1 M Hepes (LONZA cat. No: BE17-737E) • 5 mL of 100× Penicillin/Streptomycin (LONZA cat. No DE17-602E) • 50 mL of Fetal Bovine Serum (Euroclone cat. No ECS 0180L) • 0.25 mL of 10 mg/mL Puromycin (InvivoGen cat.: ant-pr-1) • 0.5 mL of 100 mg/mL Zeocin (InvivoGen cat.: ant-zn-1)
Cryo-preserved CHO-Gal4/GR cells were suspended in complete medium and 5000 cells/25 μl/well were seeded into the wells of 384-well polystyrene assay plates (Thermo Scientific, cat. #4332) and cultured at 37° C., 5% CO2 and 95% humidity. After 24 hours growth medium was carefully removed and replaced by 30111 Opti-MEM (GIBCO, cat. #31985062) as assay buffer. To test the compounds an 8-point half-log compound dilution curve was generated in 100% DMSO starting from a 2 mM stock and compounds were then diluted 1:50 in Opti-MEM. 10111 of compounds were then added to the wells containing 30 μl Opti-MEM resulting in a final assay concentration range from 10 μM to 0.003 μM in 0.5% DMSO. Compounds were tested at 8 concentrations in quadruplicate data points. […] Finally, cells were lysed with 20 μl of Triton/Luciferin solution and the signal of the emitted luminescence was recorded at the FLIPR^TETRA for 2 minutes. […]

IC50 or EC50 (antagonist or agonist mode, not stated per compound) | Compound
< 0.1 µM | CCc1c(-c2cc(F)cc3c2ccn3S(C)(=O)=O)cc(F)c2c1-n1c(C)nnc1C(C)(C)N2 [Example 48, 9-Ethyl-6-fluoro-8-(6-fluoro-1-methylsulfonyl-1H-indol-4-yl)-1,4,4-trimethyl-5H-[1,2,4]triazolo[4,3-a]quinoxaline]
0.1 to 1 µM | COCCn1ccc2c(-c3cc(F)c4c(c3OC)-n3c(C)nnc3C(C)(C)N4)cc(F)cc21 [Example 54, 6-Fluoro-8-[6-fluoro-1-(2-methoxy-ethyl)-1H-indol-4-yl]-9-methoxy-1,4,4-trimethyl-5H-[1,2,4]triazolo[4,3-a]quinoxaline]
0.1 to 1 µM | COc1c(-c2cc(F)cc3c2ccn3CCO)cc(F)c2c1-n1c(C)nnc1C(C)(C)N2 [Example 55, 2-[6-Fluoro-4-(6-fluoro-9-methoxy-1,4,4-trimethyl-5H-[1,2,4]triazolo[4,3-a]quinoxalin-8-yl)-1H-indol-1-yl]-EtOH]
0.1 to 1 µM | COc1c(-c2cc(F)cc3c2ccn3S(C)(=O)=O)cc(F)c2c1-n1c(C)nnc1C(C)(C)N2 [Example 56, 6-Fluoro-8-(6-fluoro-1-methylsulfonyl-1H-indol-4-yl)-9-methoxy-1,4,4-trimethyl-5H-[1,2,4]triazolo[4,3-a]quinoxaline]
0.1 to 1 µM | COc1c(-c2cccc3c2ccn3S(C)(=O)=O)cc(F)c2c1-n1c(C)nnc1C(C)(C)N2 [Example 57, 6-Fluoro-9-methoxy-1,4,4-trimethyl-8-(1-methylsulfonyl-1H-indol-4-yl)-5H-[1,2,4]triazolo[4,3-a]quinoxaline]
0.1 to 1 µM | COc1c(-c2cc(F)cc3c2ccn3CC(F)F)cc(F)c2c1-n1c(C)nnc1C(C)(C)N2 [Example 58, 8-(1-(2,2-difluoroethyl)-6-fluoro-1H-indol-4-yl)-6-fluoro-9-methoxy-1,4,4-trimethyl-4,5-dihydro-[1,2,4]triazolo[4,3-a]quinoxaline]
1 to 15 µM | COc1c(-c2cc(F)cc3c2ccn3CCO)cc(F)c2c1-n1c(C3CC3)nnc1C(C)(C)N2 [Example 61, 2-[4-(1-Cyclopropyl-6-fluoro-9-methoxy-4,4-dimethyl-5H-[1,2,4]triazolo[4,3-a]quinoxalin-8-yl)-6-fluoro-1H-indol-1-yl]-EtOH]
0.1 to 1 µM | COc1c(-c2cc(F)cc3c(C)c[nH]c23)cc(F)c2c1-n1c(C3CC3)nnc1C(C)(C)N2 [Example 62, 1-Cyclopropyl-6-fluoro-8-(5-fluoro-3-methyl-1H-indol-7-yl)-9-methoxy-4,4-dimethyl-5H-[1,2,4]triazolo[4,3-a]quinoxaline]
1 to 15 µM | Cc1c(-c2cccc3c2ccn3S(C)(=O)=O)cc(F)c2c1-n1c(C3CC3)nnc1C(C)(C)N2 [Example 64, 1-Cyclopropyl-6-fluoro-4,4,9-trimethyl-8-(1-methylsulfonyl-1H-indol-4-yl)-5H-[1,2,4]triazolo[4,3-a]quinoxaline]
1 to 15 µM | Cc1c(-c2cc(F)cc3c2ccn3CCO)cc(F)c2c1-n1c(C3CC3)nnc1C(C)(C)N2 [Example 65, 2-[4-(1-Cyclopropyl-6-fluoro-4,4,9-trimethyl-5H-[1,2,4]triazolo[4,3-a]quinoxalin-8-yl)-6-fluoro-1H-indol-1-yl]-EtOH]
0.1 to 1 µM | Cc1c(-c2cc(F)cc3c(C)c[nH]c23)cc(F)c2c1-n1c(C3CC3)nnc1C(C)(C)N2 [Example 66, 1-Cyclopropyl-6-fluoro-8-(5-fluoro-3-methyl-1H-indol-7-yl)-4,4,9-trimethyl-5H-[1,2,4]triazolo[4,3-a]quinoxaline]
0.1 to 1 µM | Cc1c(-c2cccc3c2cnn3C)cc(F)c2c1-n1c(C)nnc1C(C)(C)N2 [Example 304, 6-Fluoro-1,4,4,9-tetramethyl-8-(1-methyl-1H-indazol-4-yl)-5H-[1,2,4]triazolo[4,3-a]quinoxaline]

More lines, now with the values behind:

Compound | IC50 or EC50 (antagonist or agonist mode, not stated per compound)
Cc1c(-c2cc(F)cc3c(C4CC4)c[nH]c23)cc(F)c2c1-n1c(C)nnc1C(C)(C)N2 [Example 38, 8-(3-cyclopropyl-5-fluoro-1H-indol-7-yl)-6-fluoro-1,4,4,9-tetramethyl-4,5-dihydro-1-[1,2,4]triazolo[4,3-a]quinoxaline] | < 0.1 µM
CCc1c(-c2cccc3c2ccn3S(C)(=O)=O)cc(F)c2c1-n1c(C)nnc1C(C)(C)N2 [Example 49, 9-ethyl-6-fluoro-1,4,4-trimethyl-8-(1-(methylsulfonyl)-1H-indol-4-yl)-4,5-dihydro-[1,2,4]triazolo[4,3-a]quinoxaline] | 0.1 to 1 µM
CCc1c(-c2cc(F)cc3c2cnn3S(C)(=O)=O)cc(F)c2c1-n1c(C)nnc1C(C)(C)N2 [Example 53, 9-Ethyl-6-fluoro-8-(6-fluoro-1-methylsulfonyl-1H-indazol-4-yl)-1,4,4-trimethyl-5H-[1,2,4]triazolo[4,3-a]quinoxaline] | 0.1 to 1 µM
COc1c(-c2cc(F)cc3c2ccn3S(C)(=O)=O)cc(F)c2c1-n1c(C3CC3)nnc1C(C)(C)N2 [Example 59, 1-Cyclopropyl-6-fluoro-8-(6-fluoro-1-methylsulfonyl-1H-indol-4-yl)-9-methoxy-4,4-dimethyl-5H-[1,2,4]triazolo[4,3-a]quinoxaline] | 1 to 15 µM
Cc1c(-c2cc(F)cc3c2ccn3S(C)(=O)=O)cc(F)c2c1-n1c(C3CC3)nnc1C(C)(C)N2 [Example 63, 1-Cyclopropyl-6-fluoro-8-(6-fluoro-1-methylsulfonyl-1H-indol-4-yl)-4,4,9-trimethyl-5H-[1,2,4]triazolo[4,3-a]quinoxaline] | 0.1 to 1 µM
COCCn1ccc2c(-c3cc(F)c4c(c3C)-n3c(C)nnc3C(C)(C)N4)cccc21 [Example 300, 6-Fluoro-8-[1-(2-methoxy-ethyl)-1H-indol-4-yl]-1,4,4,9-tetramethyl-5H-[1,2,4]triazolo[4,3-a]quinoxaline] | 0.1 to 1 µM
Cc1c(-c2cccc3c2ccn3CCO)cc(F)c2c1-n1c(C)nnc1C(C)(C)N2 [Example 301, 2-[4-(6-Fluoro-1,4,4,9-tetramethyl-5H-[1,2,4]triazolo[4,3-a]quinoxalin-8-yl)-1H-indol-1-yl]-EtOH] | 0.1 to 1 µM
Cc1c(-c2cccc3c2ccn3C2CC2)cc(F)c2c1-n1c(C)nnc1C(C)(C)N2 [Example 305, 8-(1-Cyclopropyl-1H-indol-4-yl)-6-fluoro-1,4,4,9-tetramethyl-5H-[1,2,4]triazolo[4,3-a]quinoxaline] | < 0.1 µM
CCc1nnc2n1-c1c(C)c(-c3cccc4c3ccn4S(C)(=O)=O)cc(F)c1NC2(C)C [Example 308, 1-Ethyl-6-fluoro-4,4,9-trimethyl-8-(1-methylsulfonyl-1H-indol-4-yl)-5H-[1,2,4]triazolo[4,3-a]quinoxaline] | < 0.1 µM
